Data reported in publication PMC10983001, “Development of Cytotoxic GW7604-Zeise’s Salt Conjugates as Multitarget Compounds with Selectivity for Estrogen Receptor- Positive Tumor Cells” (Journal of Medicinal Chemistry, 2024).

Columns and labels:
MCF-7 cells = assay: Cellular uptake (platinum by HR-CS-AAS), MCF-7; assay type: cell-based, human; details: MCF-7, 20 μM
Method: In order to reach the DNA, the complexes must first pass through the cell membrane and penetrate into the nuclei. Therefore, the cellular uptake kinetics of GW7604-Alk-PtCl3 complexes were studied using the example of GW7604-Pent-PtCl3. This complex and Cisplatin, respectively, were incubated at a concentration of 20 μM with MCF-7 or SKBr3 cells. After various time points [i.e., 0 (3 min), 0.5, 1, 2, 4, and 8 h], cell pellets were prepared, and the platinum content was quantified by high-resolution continuum source atomic absorption spectrometry (HR-CS-AAS).[52]
After thawing of the cell/nuclei pellets, they were resuspended in ultrapure water (Siemens LaboStar, Günzburg, Germany; 300 μL) and lyzed with a sonotrode (Bandelin Sonoplus, Berlin, Germany; parameters 20 s, 9 cycles, 80% power). Graphite furnace (GF) AAS was used to quantify the lysates concerning their content of platinum (λ = 265.9450 nm). For this purpose, a contrAA 700 High-Resolution-Continous Source AAS (Analytik Jena, Jena, Germany) was employed, while atomization took place by electrothermal heating of graphite tubes with an inserted platform (Analytik Jena, Jena, Germany). A time–temperature program reported in the literature[25] was followed with minor adjustments. The liquid samples kept in 0.5 mL polystyrene vials (Gesellschaft für Analysentechnik, Salzwedel, Germany) were injected directly into the pyrolytically coated tubes using an MPE 60 autosampler (Analytik Jena, Jena, Germany). Throughout the measurements, argon (Alphagaz 1, 99.999%, Air Liquide, Düsseldorf, Germany) served as the purge and protective gas. The spectrometer was monitored with the ASpect CS software, version 2.3.1.0 (Analytik Jena, Jena, Germany). For all runs, the mean integrated absorbance was determined after three injections of each standard or sample. Calibration was performed by an appropriate dilution of a solution of Cisplatin (Sigma-Aldrich, Taufkirchen, Germany) obtaining five standards (2–10 μg/L, R^2 ≥ 0.982). Each cell/nuclei lysate was quantified concerning its protein content following the method of Bradford[71] in order to express the uptake as the amount of compound (pmol) in the lysate relative to its protein mass (mg). Therefore, solutions of Albumin fraction V (Carl Roth, Karlsruhe, Germany) diluted with ultrapure water were adduced for the calibration (six standards, 50–300 μg/mL, R^2 ≥ 0.996). A volume of 20 μL of the Albumin standards or the lysates was added to a 96-well plate (Sarstedt, Nürmbrecht, Germany) and supplemented with 200 μL of Bradford’s reagent (Roti-Nanoquant, Carl Roth, Karlsruhe, Germany; diluted 5-fold with ultrapure water). All standards and lysates were measured in duplicate. After incubating for 5 min at rt, the absorbance (λ = 595 nm) was read on a microplate reader (Tecan Safire 2, Männedorf, Switzerland). The cellular/nuclear uptake (pmol complex/mg protein) is given as the mean ± SD of 2 independent experiments.
For cellular uptake studies, 1.0 × 10^6 of MCF-7 and SKBr3 cells in their exponential growing phase were seeded into 25 cm^2 cell culture flasks and incubated for 24 h under a humidified atmosphere (5% CO2/95% air) at 37 °C. Stock solutions of the platinum complexes (GW7604-Pent-PtCl3, Cisplatin) in DMF were freshly prepared and diluted with complete DMEM containing 10% FCS to the desired concentration [final DMF concentration of 0.1% (v/v), final complex concentration of 20 μM]. The medium in the cell culture flasks was replaced with 3 mL of fresh cell culture medium containing the compounds, and the flasks were incubated under a humidified atmosphere at 37 °C for 3 min, 0.5, 1, 2, 4, and 8 h. Cell pellets were prepared by removing the medium, washing two times with phosphate-buffered saline (PBS), and detaching the cells with Accutase (GE Healthcare, BioSciences, Chicago, IL, USA). Subsequently, cells were pelleted by centrifugation (4 °C, 380g, 3 min). […]

[1] = Stability in organic solutions (1H NMR); assay type: physicochemical; details: for amount of free ligand: DMF-d7, rt
Method: Furthermore, it needs to be clarified whether organic solvent molecules are capable of ligand exchange reactions at the PtCl3 unit and form corresponding reaction/degradation products of the GW7604-Alk-PtCl3 complexes. Therefore, ^1H NMR experiments were performed with noncoordinating [e.g., acetone-d6, methanol-d4] and coordinating [e.g., acetonitrile-d3 , DMF-d7, dimethyl sulfoxide-d6 (DMSO-d6)] solvents. It should further be assessed whether the solvents are suitable for preparing stock solutions for structural characterization or in vitro testing.
The solutions (concentrations of 4.5–5.0 mM) were stored in NMR tubes at room temperature (rt) after being purged with argon.

nuclei of MCF-7 cells = assay: Nuclear uptake (platinum by HR-CS-AAS), MCF-7; assay type: cell-based, human; details: MCF-7, 20 μM, 24 h; pmol complex/mg protein
Method: Fluorescence in the nuclei is not detectable. Therefore, the nuclei were analyzed for their platinum content using HR-CS-AAS.[25]
After thawing of the cell/nuclei pellets, they were resuspended in ultrapure water (Siemens LaboStar, Günzburg, Germany; 300 μL) and lyzed with a sonotrode (Bandelin Sonoplus, Berlin, Germany; parameters 20 s, 9 cycles, 80% power). Graphite furnace (GF) AAS was used to quantify the lysates concerning their content of platinum (λ = 265.9450 nm). For this purpose, a contrAA 700 High-Resolution-Continous Source AAS (Analytik Jena, Jena, Germany) was employed, while atomization took place by electrothermal heating of graphite tubes with an inserted platform (Analytik Jena, Jena, Germany). […] The spectrometer was monitored with the ASpect CS software, version 2.3.1.0 (Analytik Jena, Jena, Germany). For all runs, the mean integrated absorbance was determined after three injections of each standard or sample. […] Each cell/nuclei lysate was quantified concerning its protein content following the method of Bradford[71] in order to express the uptake as the amount of compound (pmol) in the lysate relative to its protein mass (mg). […] All standards and lysates were measured in duplicate. After incubating for 5 min at rt, the absorbance (λ = 595 nm) was read on a microplate reader (Tecan Safire 2, Männedorf, Switzerland). […]

human recombinant COX-1 = molecular target: T1, human recombinant COX-1 (Homo sapiens, UniProt P23219); assay type: biochemical; details: incubation 10 min
T1 construct: purchased Cayman Chemicals
Method: COX-1/2 inhibition was evaluated in an established assay on isolated isoenzymes. After incubation with the drugs (concentration: 20 μM) for 10 min, the remaining COX activity was measured by an enzyme-linked immunosorbent assay (ELISA).
The incubation time of the compounds with the respective isoenzymes was exactly 10 min. The results are presented as the mean ± SEM of three independent experiments, with two replicates of each experiment. […] Graphs were drawn using GraphPad Prism 8.0.

T1 sequence (P23219 24-599): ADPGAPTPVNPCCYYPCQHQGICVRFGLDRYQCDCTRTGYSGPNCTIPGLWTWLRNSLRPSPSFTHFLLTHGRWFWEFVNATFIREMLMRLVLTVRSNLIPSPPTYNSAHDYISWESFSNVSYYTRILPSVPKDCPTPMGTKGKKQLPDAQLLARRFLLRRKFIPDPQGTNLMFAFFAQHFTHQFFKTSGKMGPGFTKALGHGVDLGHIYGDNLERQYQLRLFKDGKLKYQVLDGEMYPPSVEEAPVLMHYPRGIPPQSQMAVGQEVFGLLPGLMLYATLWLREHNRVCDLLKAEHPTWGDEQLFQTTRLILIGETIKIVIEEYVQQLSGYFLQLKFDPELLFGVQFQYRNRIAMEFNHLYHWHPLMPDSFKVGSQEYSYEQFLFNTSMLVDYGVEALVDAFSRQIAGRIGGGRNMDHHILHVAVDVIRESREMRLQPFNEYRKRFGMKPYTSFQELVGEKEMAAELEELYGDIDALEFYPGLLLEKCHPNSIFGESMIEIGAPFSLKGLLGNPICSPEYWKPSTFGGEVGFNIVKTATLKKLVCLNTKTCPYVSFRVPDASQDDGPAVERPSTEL

CCC(=C(c1ccc(O)cc1)c1ccc(C=CC(=O)OCCC[CH]2[CH2][Pt-]2([Cl])([Cl])[Cl])cc1)c1ccccc1.[K+] (mixture of isomers) [GW7604-Pent-PtCl3, Potassium trichlorido[η^2-(pent-4-en-1-yl (E)-3-(4-((E/Z)-1-(4-hydroxyphenyl)-2-phenylbut-1-en-1-yl)phenyl)acrylate)]platinate(II)]
intracellular platinum amount (MCF-7 cells; 0.5 h): 130 pmol/mg | intracellular platinum amount (MCF-7 cells; 1 h): 265 pmol/mg | intracellular platinum amount (MCF-7 cells; 2 h): 371 pmol/mg | intracellular platinum amount (MCF-7 cells; 4 h): 659 pmol/mg | intracellular platinum amount (MCF-7 cells; 8 h): 818 pmol/mg | amount of free ligand ([1]; 9 days): about 33% | amount of free ligand ([1]; 14 days): about 40% | stability in DMSO-d6 ([1]; DMSO-d6, measured after 5 min / immediately after dissolution): only signals of the free GW7604-Pent ligand | time to complete degradation of the complex ([1]; acetonitrile-d3, rt): ≤ 23 days | complex that released the free ligand ([1]; acetonitrile-d3, rt, 4 days): about 25% | complex that released the free ligand ([1]; acetonitrile-d3, rt, 9 days): about 35% | platinum content in the nuclei (nuclei of MCF-7 cells): 145 pmol/mg | IC50 (human recombinant COX-1; 0.1–20 μM): 1.7 µM | concentration at which maximum activity is reached, COX-1 (human recombinant COX-1): 10 µM
